Experimental data as given in US5364869A, “Heterocycle-substituted benzyaminopyridine angiotensin II receptor antagonists” (Abbott Laboratories, priority 1993, dated 1994).
One block for each compound: values may come before it.

Legend:
angiotensin II receptor = target: T1, angiotensin II receptor (Oryctolagus cuniculus, UniProt P34976); test: Antagonism of contraction of rabbit aorta (angiotensin II functional assay, isolated rabbit aorta); parameters: species or system rabbit (female New Zealand White); conditions: Schild analysis; for Kb: pA2 = negative logarithm of [A]2
T1 construct: Main abdominal aortas were removed and placed in Krebs-Henseleit buffer; from tissue; host or cells: abdominal aorta rings of female New Zealand White rabbits
T1 sequence (P34976 1-359): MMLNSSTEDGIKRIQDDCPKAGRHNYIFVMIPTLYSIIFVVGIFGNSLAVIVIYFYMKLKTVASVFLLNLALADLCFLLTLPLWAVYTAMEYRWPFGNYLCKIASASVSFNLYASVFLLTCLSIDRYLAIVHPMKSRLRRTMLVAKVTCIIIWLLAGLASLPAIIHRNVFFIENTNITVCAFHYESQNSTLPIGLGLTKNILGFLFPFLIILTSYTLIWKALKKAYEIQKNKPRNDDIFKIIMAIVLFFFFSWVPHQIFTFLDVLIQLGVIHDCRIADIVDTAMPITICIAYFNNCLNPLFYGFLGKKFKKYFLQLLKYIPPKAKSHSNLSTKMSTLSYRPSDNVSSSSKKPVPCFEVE
Source text: ANGIOTENSIN II FUNCTIONAL ASSAY
Antagonism of Contraction of Rabbit Aorta
The protocol reported by A. T. Chiu and P. Timmermans (P. C. Wong, et al. Hypertension, 13, 489-497 (1989)) was followed with a few modifications. Female New Zealand White rabbits weighing 2-5 kg were sedated with carbon dioxide and then sacrificed. Main abdominal aortas were removed and placed in Krebs-Henseleit buffer at room temperature.
The tissues were cleaned of extraneous connective tissue, cut into 3 mm rings, and suspended within a 10 mL tissue bath. All dilutions of peptide preparations were made with 0.3% aqueous BSA. The tissues were primed with 55 mM potassium chloride. Tissues were pre-loaded with 1 g of tension. Tension was recorded on a model 7 Grass polygraph using FT03 transducers. At the end of the equilibrium period, a control cumulative concentration-contractile response curve for angiotensin II (A II: 1×10^-10 -10^-8 M) was obtained. The tissue was washed several times until the baseline was reached. Forty five minutes later, test compound (antagonist) was added and the tissue was incubated for 30 minutes. The concentration-response curve for A II was then repeated in the presence of the test compound. One dose of antagonist was tested per tissue only. For single dose shift experiments a dose of 1 mM of test compound was used, for a full pA2 experiment multiple doses were used depending upon the potency of the antagonist.
All responses to the control agonist were calculated as a percentage of the maximum response. These points in duplicate were plotted and analyzed according to standard Schild analysis (H. O. Schild, British J Pharmacology and Chemotherapy, 2, 189-206 (1947). The pA2 values calculated for the compounds of the invention are shown in Table 1. The pA2 value is the negative logarithm of the [A]2 value. [A]2 is the concentration of antagonist which necessitates doubling the agonist concentration in order to achieve the agonist effect which was measured in the absence of antagonist.
The pA2 value, therefore is a measure of the effectiveness of the compound as an antagonist.

[1] = test system: hypertension and congestive heart failure; conditions: background; cited from earlier work
[2] = after intravenous administration; due to angiotensin receptor agonist activity; cited from earlier work
[3] = background; cited from earlier work
angiotensin II = conditions: background; cited from earlier work

Kb (angiotensin II receptor): 589 nM
SMILES: CCCN(Cc1ccc(OC(C(=O)O)c2ccccc2)cc1)c1nc(C)ncc1C(=O)O (stereo not drawn) [Example 1, 4-[N-4-(1-Carboxy-1-phenylmethoxy)benzyl-N-propyl]amino-2-methylpyrimidine-5-carboxylic acid]

pA2 (angiotensin II receptor; pA2 = negative logarithm of [A]2, 30 min): 7.53
SMILES: CCCN(Cc1ccc2c(Br)c(-c3ccccc3-c3nn[nH]n3)sc2c1)c1ncccc1C(=O)O [Example 3]

Kb (angiotensin II receptor): 0.132 nM
SMILES: CCCN(Cc1ccc(-n2cc(Br)cc2-c2nn[nH]n2)cc1)c1ncccc1C(=O)O [Example 4H, 2-{N-Propyl-N-[(1-[3-bromo-5-(1H-tetrazol-5-yl)pyrrole-1-yl]phenyl-4-yl)methyl]amino}pyridine-3-carboxylic acid]

SMILES: C[C@H](CS)C(=O)N1CCC[C@H]1C(=O)O [captopril]
clinical efficacy in treating hypertension and congestive heart failure (in words) [1]: have clinical efficacy in treating hypertension and congestive heart failure

SMILES: CCOC(=O)[C@H](CCc1ccccc1)N[C@@H](C)C(=O)N1CCC[C@H]1C(=O)O [enalapril]
clinical efficacy in treating hypertension and congestive heart failure (in words) [1]: have clinical efficacy in treating hypertension and congestive heart failure

SMILES: COc1ccc(C[C@H](NC(=O)CC(C)(C)N)C(=O)N[C@@H](Cc2cnc[nH]2)C(=O)N[C@@H](CC2CCCCC2)[C@@H](O)[C@@H](O)CC(C)C)cc1 [enalkiren]
clinical efficacy in treating hypertension and congestive heart failure (in words) [1]: have clinical efficacy in treating hypertension and congestive heart failure

SMILES: CNCC(=O)N[C@@H](CCCN=C(N)N)C(=O)N[C@H](C(=O)N[C@@H](Cc1ccc(O)cc1)C(=O)N[C@H](C(=O)N[C@@H](Cc1cnc[nH]1)C(=O)N1CCC[C@H]1C(=O)N[C@@H](C)C(=O)O)C(C)C)C(C)C [saralasin, [Sar^1, Ala^8] angiotensin II]
initial blood pressure change (in words) [2]: initial increase in blood pressure after intravenous administration
oral bioavailability (in words) [3]: very poor oral bioavailability
antagonist of the actions of angiotensin II (in words) (angiotensin II): potent antagonist of the actions of angiotensin II
